Results from BindingDB's records for doi:10.1021/jm990614i (Harvard Medical School, 2000).

These molecules were tested against Aldehyde dehydrogenase, mitochondrial (Mesocricetus auratus) (assay: Compound was evaluated for the inhibition of Hamster Liver mitochondrial ALDH-2).
In the case of O=c1c(-c2ccc(O)cc2)coc2cc(OCC(O)CO)ccc12 (stereo unspecified) [7-(2,3-Dihydroxy-propoxy)-3-(4-hydroxy-phenyl)-chromen-4-one], the IC50 is reported as 0.1 µM.

What follows are molecules tested against Aldehyde dehydrogenase, mitochondrial (Mesocricetus auratus) (assay: Inhibition of Hamster Liver mitochondrial ALDH-2).
With O=c1c(-c2ccc(O)cc2)coc2cc(OCCC3OCCCO3)ccc12 [7-(2-[1,3]Dioxan-2-yl-ethoxy)-3-(4-hydroxy-phenyl)-chromen-4-one] the IC50 was 0.4 µM. Work on C=CCOc1ccc2c(=O)c(-c3ccc(O)cc3)coc2c1 [7-Allyloxy-3-(4-hydroxy-phenyl)-chromen-4-one] yielded an IC50 of 0.8 µM. CCOc1ccc2c(=O)c(-c3ccc(O)cc3)coc2c1 [7-Ethoxy-3-(4-hydroxy-phenyl)-chromen-4-one] gave an IC50 of 0.04 µM. O=C(O)CCCCCCOc1ccc2c(=O)c(-c3ccc(O)cc3)coc2c1 [7-[3-(4-Hydroxy-phenyl)-4-oxo-4H-chromen-7-yloxy]-heptanoic acid] showed an IC50 of 0.009 µM. In the case of O=C(O)CCCCCCCCCOc1ccc2c(=O)c(-c3ccc(O)cc3)coc2c1 [10-(3-(4-hydroxyphenyl)-4-oxo-4H-chromen-7-yloxy)decanoic acid], the IC50 is reported as 0.004 µM.
